Measurements as given in patent US20230357722A1, “METHODS FOR IDENTIFYING MODULATORS OF NATURAL KILLER CELL INTERACTIONS” (The Johns Hopkins University, priority 2020, published 2023).

Legend:
Format in all cases: cell-based, mouse
KLRG1 = test: RT-qPCR of KLRG1 in teNK cells treated with DNMT inhibitors; conditions: teNK cells pretreated with DNMT inhibitor; FIG. 10F
Description: (§1) Natural killer cell isolation. Primary splenocytes were isolated by mechanical dissociation from spleens of wild-type FVB/n, MMTV-PyMT, or C3(1)-Tag mice, or from the tumors of MMTV-PyMT mice. NK cells isolated from WT FVB/n mice are defined as healthy NK (hNK) cells and those isolated from tumor bearing mice are defined as tumor-exposed NK (teNK) cells. NK cells isolated from MMTV-PyMT tumors are defined as tumor-infiltrating NK cells. The NK cells were purified from isolated splenocytes using EasySep Mouse NK Cell Isolation Kit per the manufacturer's protocol (#19855; Stemcell Technologies). The isolated cells were then positively selected by FACS by gating on CD49b+/CD3− cells and CD45+/CD49b+/CD3− for NK cells isolated from tumors. NK cells were cultured in media at 37° C. containing 200 U/ml recombinant mouse IL-2 (#402-ML-100, R&D Systems), 5 ng/ml recombinant mouse IL-15 (#447-ML-010, R&D Systems) or 5 ng/ml recombinant mouse IL-I5:IL-15R complex (#14-8152-62, Thermo Fisher) for 16 h before use in assays. […]
(§2) RNA Extraction and Quantitative PCR. […] Quantitative PCR was conducted using the SsoAdvanced Universal SYBR Green Supermix (BioRad #1725271) with 500 pg cDNA and 500 nM primers per reaction. […] Target gene expression values were normalized to GAPDH expression and fold change was calculated as 2-ΔΔCt. […]

[1] = tested on: tumor-exposed NK cell-MMTV-PyMT tumor cluster co-culture; test: teNK cell-MMTV-PyMT tumor cluster co-culture colony formation assay; conditions: teNK cells pretreated with DNMT inhibitor at 1 μM for 24 hours before co-culture; FIG. 5C
Description: The capacity of candidate immunotherapies to reverse the effect of teNK cells on colony formation was investigated. Anti-PD-1 therapy has been reported to restore the function of anergic NK cells (Hsu J, et al. J Clin Invest. 2018; 128(10):4654-68). […] Targeted receptors were next identified in the RNA expression analysis, specifically TIGIT and KLRG1. TIGIT is an emerging immune checkpoint on NK cells and T cells and anti-TIGIT therapies are in clinical trials (Zhang Q, et al. Blockade of the checkpoint receptor TIGIT prevents NK cell exhaustion and elicits potent anti-tumor immunity. Nat Immunol. 2018; 19(7):723-32). KLRG1, a marker of senescent NK cells and T cells and a recently reported inhibitor of NK cell function (Muller-Durovic B, et al. J Immunol. 2016; 197(7):2891-9), was highly expressed by teNK cells. […] The broad gene expression differences between hNK and teNK cells provided the motivation to identify epigenetic regulators of NK cell state. […] Experiments were then carried out seeking to validate the functional significance of these findings in the co-culture models. […] It was assessed whether the combination of FDA approved DNA methyltransferase inhibitors and anti-TIGIT or anti-KLRG1 would prevent colonies from being formed in co-culture. […]

TIGIT = test: RT-qPCR of TIGIT in teNK cells treated with DNMT inhibitors; conditions: teNK cells pretreated with DNMT inhibitor; FIG. 10F
Description: as §1, §2

Nc1ncn([C@@H]2O[C@H](CO)[C@@H](O)[C@H]2O)c(=O)n1 [azacitidine]
gene expression of KLRG1 by qPCR (KLRG1): reduced gene expression of TIGIT and KLRG1
colony formation (normalized colony count) [1]: neutralized the effect of teNK cells in co-culture
gene expression of TIGIT by qPCR (TIGIT): reduced gene expression of TIGIT
